We go through one compound from paper PMC7261837, “Circumdatin D Exerts Neuroprotective Effects by Attenuating LPS-Induced Pro-Inflammatory Responses and Downregulating Acetylcholinesterase Activity In Vitro and In Vivo” (Frontiers in Pharmacology, 2020).

In data set [1] the test system is C. elegans CL4176. Briefly: Nematode toxicity assay. The following applies: 24 and 48 h, tested dose, Figure S19. Type of data set: in vivo, Caenorhabditis elegans. The method, then: To eliminate the confounding factor of toxicity in the procedure, CL4176 worms were exposed to increasing concentrations of circumdatin D dissolved in NGM (0, 100, 200, 500 µM) for 24 h and 48h at 16 °C, respectively. Further, nematodes were exposed to 0.4% DMSO as the negative control. The animals were scored as live or death using a Motic dissecting microscope (Motic Inc., LTD., Hong Kong, China). The worms were considered as death if there was no response when gently touched with a platinum wire. Each independent assay included three NGM plates with thirty worms in each one. Toxicity was expressed as a total percentage of worm survival.

A further data set has as its system ERK1/2-JNK1/2-p38 MAPKs. Briefly: MAPK phosphorylation in LPS-induced BV-2 cells (Western blot). Type of data set: cell-based, murine. The following applies: 1 μg/ml LPS, 10, 20, 50 μM, 3 h. The method, then:
(§1) Total cell proteins were lysed using cell extraction buffer containing phenylmethylsulfonyl ﬂuoride and protease inhibitor cocktail. The cytosolic and nuclear extracts were collected using the Nuclear and Cytosolic extraction kit. The protein extracts were separated on SDS-PAGE and transferred to PVDF membranes (Millipore). The membrane was blocked with 5% nonfat milk for 1 h at room temperature, and incubated with indicated primary antibodies overnight at 4°C. After washing, the membrane was incubated with secondary antibodies conjugated to horseradish peroxidase (Proteintech, USA) at room temperature for 1 h. Then, the proteins of interest were visualized utilizing a chemiluminescence (ECL) detection system. The relative optical densities were analyzed using the Image Master™ 2D Elite software.

In data set [2] the test system is C. elegans CL4176. Briefly: qRT-PCR of ace-1, ace-2, F22E5.6 and ZC239.12 in CL4176. It is filed as in vivo, Caenorhabditis elegans. The note with it: CL4176, 36 h post temperature up-shift. The text has this: Related gene expression levels were detected as [Xin et al. (2013)] described. After treatment, CL4176 worms were collected and total RNA was extracted using TRIzol method. The cDNA was synthesized using cDNA synthesis kit (Invitrogen) according to manual instructions. The mRNA expression of target genes viz. F22E5.6, ZC239.12, ace-1 and ace-2 was quantified in comparison to housekeeping gene F23B2.13 using SYBR green detection method on ABI 7500 system (Applied Biosystems). The relative gene expression was calculated using comparative Ct (ΔΔCt) method. The following primers in Table 2 were used in this study.
On the technique in general: In qPCR the cycle at which signal appears reflects the starting amount.

Data set [3] has as its system primary cortical neurons co-cultured with LPS-activated primary microglia. Briefly: Microglia-neuron co-culture neuroprotection (MTT, TUNEL, crystal violet). Type of data set: cell-based, Sprague Dawley rats. The method, then:
For co-culture experiments, primary microglia cells were seeded on the upper insert of Transwell chambers (pore size 3 μm; Corning Costar, USA) in 24-well plates, and neurons were grown in the lower plate wells. Circumdatin D was added to primary microglia cells 1 h before LPS stimulation. After 48 h of coculture, the neurons in the bottom of 24-well plate were collected for the following experiments.
[…] Then, the cells were stained with 1% crystal violet solution for 15 min. Images were captured with an optical microscope. Five different fields were selected for each group for observing cellular morphology.
[…] TUNEL staining was performed to detect apoptosis using in situ cell death detection Kit (Roche Diagnostics, Mannheim, Germany). Hochest 33342 staining was used to detect total cell nuclei. Images were taken and analyzed on a confocal microscopy (Leica, Germany). Six fields from each sample were randomly selected and analyzed.

The subject of data set [4] is BV-2 cells. Briefly: Western blot of iNOS and COX-2 in LPS-induced BV-2 cells. It is filed as cell-based, murine. The note with it: 1 μg/ml LPS, 10, 20, 50 μM, 24 h. How it is done: as §1
For orientation: In western blotting, separated proteins are transferred to a membrane and probed.

Data set [5] addresses T1, acetylcholinesterase (AChE) from Electrophorus electrics (Electric eel) (Electrophorus electricus, UniProt O42275).
T1 construct: purchased Sigma Chemical Co. (St Louis, MO, USA)
Briefly: biochemical. The note with it: modified Ellman's colorimetric method; mean ± SD (n = 3). The source says:
Dulbecco's modified Eagle medium (DMEM), α-minimum essential medium (α-MEM) and fetal bovine serum (FBS) were provided by Hyclone (Waltham, USA). 3-(4,5-Dimethylthiazol-2-yl)-2,5-diphenyltetrazolium bromide (MTT), acetylcholinesterase (AChE) from Electrophorus electrics (Electric eel) and lipopolysaccharide (LPS) (Escherichia coli 055: B5) were provided by Sigma Chemical Co. (St Louis, MO, USA). Enzyme-linked immunosorbent assay (ELISA) kits for IL-1β and TNF-α and Griess reagent for nitric oxide (NO) assay kit were provided by ExCell Bio (Shanghai, China). Antibodies for TLR4, MyD88, JNK, p-JNK, p38, p-p38, ERK, p-ERK, IκB, p-IκB, IKK, p-IKK, NF-κB, STAT3、p-STAT3、Jak2, p-Jak2, GAPDH and Histone H3 were purchased from Cell Signaling Technology (Danvers, USA). Antibodies for iNOS and COX-2 were provided by Abcam (Cambridge, UK).
AChE activities in vitro and in vivo were assessed by a modified Ellman's spectrophotometric method ([Szwajgier, 2015]). Briefly, AChE (80 μl) in phosphate buffer (Na2HPO4/NaH2PO4, pH 8.0) and compound (20 μl) diluted in same phosphate buffer were added to 96 microplates as the reaction mixture. The mixture was incubated at 37°C for 30 min before addition of 10 μl 5,5′-dithiobis (2-nitrobenzoic acid) (DTNB) (3 mM) and 10 μl acetylthiocholine iodide (ATCI) (15 mM). After incubation for 20 min, the absorbance was detected at 412 nm using a microplate spectrophotometer (Thermo Scientifics, USA). […] The inhibitory rate of AChE was calculated, and the IC50 values were calculated by GraphPad Prism® 5.0 software (GraphPad Inc., San Diego, USA).

Data set [6] concerns BV-2 cells. Briefly: LPS-induced NO production in BV-2 cells (Griess method). It is filed as cell-based, murine. The note with it: 1 μg/ml LPS, 24 h. How it is done: BV-2 cells (murine microglia cell line) was obtained from Peking Union Medical College, Cell Bank (Beijing, China) and maintained in DMEM containing 10% FBS. Cells were grown in a humidified atmosphere of 5% CO2 incubator at 37°C.
BV2 cells were seeded and incubated overnight, and followed by treatment with different doses of circumdatins for indicated period with or without LPS (1 μg/ml) stimulation. The cells without circumdatins and LPS treatment were used as the control group.
The NO levels in culture media was determined using a Griess method. Cells were treated with different concentrations of circumdatins in the presence or absence of LPS for 24 h. After that, the supernatant fraction of the culture media was collected and mixed with the same volume of Griess reagent (1% sulfanilamide/0.1% naphthyl ethylene diamine dihydrochloride/2% H3PO4). Then, the absorbance was measured at 540 nm using a microplate spectrophotometer (Thermo Scientifics, USA). The concentration of nitrite was calculated from a calibration curve obtained from standards sodium nitrite solutions.
(Nitrite, measured by Griess reagent, commonly stands in for NO production.)

Each structure is given as a SMILES string.

T1 sequence (O42275 24-633): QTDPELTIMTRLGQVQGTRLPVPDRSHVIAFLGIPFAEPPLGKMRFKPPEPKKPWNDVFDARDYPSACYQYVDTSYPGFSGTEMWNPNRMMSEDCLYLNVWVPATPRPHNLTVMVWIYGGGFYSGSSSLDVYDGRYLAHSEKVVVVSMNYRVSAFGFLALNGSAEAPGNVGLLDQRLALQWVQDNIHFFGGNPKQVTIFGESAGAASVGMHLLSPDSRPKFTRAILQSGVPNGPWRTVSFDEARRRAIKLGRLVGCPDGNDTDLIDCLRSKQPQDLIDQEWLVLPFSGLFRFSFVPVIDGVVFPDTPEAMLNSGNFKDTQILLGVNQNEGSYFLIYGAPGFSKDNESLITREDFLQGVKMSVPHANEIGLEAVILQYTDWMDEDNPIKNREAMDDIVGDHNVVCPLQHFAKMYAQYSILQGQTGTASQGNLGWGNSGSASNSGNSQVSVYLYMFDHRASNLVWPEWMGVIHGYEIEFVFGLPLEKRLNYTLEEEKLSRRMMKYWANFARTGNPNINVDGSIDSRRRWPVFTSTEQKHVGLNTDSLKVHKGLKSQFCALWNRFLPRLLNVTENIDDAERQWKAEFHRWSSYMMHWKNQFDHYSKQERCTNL

For the compound `COc1ccc2c(c1)C(=O)N1CCC[C@H]1c1nc3ccc(OC)cc3c(=O)n1-2` [circumdatin D], the “toxicity on CL4176 nematodes (survival)” value in the data set with C. elegans CL4176 [1] is “no toxicity on the normal survival of the nematode”. For the same compound, the “MAPK (ERK1/2, JNK1/2, p38) phosphorylation” value with ERK1/2-JNK1/2-p38 MAPKs is “markedly suppressed the phosphorylation”. Also, the “AChE genes (ace-1, ace-2) and inflammation related genes (F22E5.6, ZC239.12) expression” value in the data set with C. elegans CL4176 [2] was “inhibited temperature raise-induced AChE and inflammation-associated gene expressions”. Moreover, the “neuron death in co-cultures (MTT)” value in data set [3] (microglia treated prior to LPS stimulation (1 μg/ml), 48 h) was “reduced neuron death”. The “neuron apoptosis, TUNEL-positive cells” value in data set [3] (microglial-neuronal co-culture, 1 μg/ml LPS) is given as “significantly reduced the numbers of TUNEL-positive cells”. Besides, the “neuronal morphology (crystal violet staining)” value in data set [3] (microglial-neuronal co-culture, 1 μg/ml LPS, 48 h) is reported as “markedly reversed the neuronal injury”. The “iNOS and COX-2 protein expression” value in the data set on BV-2 cells [4] was “reduced LPS-induced COX-2 and iNOS expression dose-dependently”. Also, the IC50 in data set [5] turned out to be 2.4 ± 0.5 µM. Besides, the “LPS-induced NO production” value in the data set on BV-2 cells [6] was “significant reduction of NO levels”.

A word on the IC50: it is the concentration that gives 50% inhibition.
